Results on one molecule are retold here after patent publication US11129810B2, “Dosage regimen for the treatment of acute exacerbations of chronic obstructive pulmonary disease” (MEREO BIOPHARMA 1 LIMITED, priority 2016, dated 2021).

Series [1] is described as follows: Plasma protein binding (free fraction) in human plasma samples. Format: in vitro ADME.
Series [2] can be described thus: Human plasma PK of the Day 1, 3 and 5 dosing regimen. Format: in vivo. From the text:
This study investigated the efficacy, safety and tolerability of two different dosing regimens of 3-[5-amino-4-(3-cyanobenzoyl)-pyrazol-1-yl]-N-cyclopropyl-4-methylbenzamide added to SoC (systemic corticosteroids and/or antibiotics) versus placebo added to SoC in subjects with severe acute exacerbations of COPD. The proposed doses take into account trough levels based on PK modelling to ensure that the drug rapidly achieves and remains at effective concentrations between doses.
(§1) A number of PK studies have been performed looking at both dosing intervals (Days 1, 3 and 5 (FIGS. 1-4, top panels) versus Days 1, 4 and 7 (FIGS. 1-4 bottom panels)), as well as dose levels (approximately 75/40/40 mg (FIG. 1); approximately 75/20/20 (FIG. 2); approximately 40/40/40 mg (FIG. 3); approximately 40/20/20 mg (FIG. 4), etc.). Based on exposures of the various regimens, there is limited benefit in dosing beyond Day 5 for a typical exacerbation.
Dosing at Day 1, 3 and 5, maintains drug levels above 220 ng/mL out to approximately 140 to 150 hours. This achieves a plasma concentration of 5.7 μM.
The concentration based on free fraction is at or above 740 nM for the duration of the dosing interval. Cmax is approximately 2 μM based on the first dose. […] Assuming a PK variability of 50%, drug levels are 3 to 5 times above the K and so would produce high levels of inhibition, potentially in the range of 90 to 99%.

The test system of a further series is TNF-α. The series can be described thus: TNF-α levels after single oral doses versus placebo (ex vivo LPS-challenged blood samples). Format: in vivo, human. On the procedure: as §1
Part 1 of study CBCT197A2101 was a randomized, double-blind, placebo-controlled, ascending single-dose study to evaluate safety, tolerability, PK and PD of oral 3-[5-amino-4-(3-cyanobenzoyl)-pyrazol-1-yl]-N-cyclopropyl-4-methylbenzamide in healthy subjects. Part 2 was a 14-day, randomized, double-blind, placebo-controlled, ascending multiple dose study evaluating the PK and PD of oral 3-[5-amino-4-(3-cyanobenzoyl)-pyrazol-1-yl]-N-cyclopropyl-4-methylbenzamide. PD effect of 3-[5-amino-4-(3-cyanobenzoyl)-pyrazol-1-yl]-N-cyclopropyl-4-methylbenzamide in Parts 1 and 2 was assessed by measuring TNFa levels in ex vivo LPS-challenged blood samples. […] Part 3 of the study determined the effect of a single oral administration of 3-[5-amino-4-(3-cyanobenzoyl)-pyrazol-1-yl]-N-cyclopropyl-4-methylbenzamide on serum TNFa levels after in vivo intravenous LPS challenge.

The conditions of series [3]: single oral dose; WO 2013/139809; cited from earlier work.
Series [4] in a line: Highest safe dose based on toxicology margins. On the procedure: However, in order to initiate suppression of the inflammatory response the Day 1 dose in both regimes is higher than the doses on Days 3 and 5. The ‘high’ dosing regimen (regimen 1) is initiated at 75 mg which is the highest dose which can be safely administered based on toxicology margins whereas the ‘low’ dose regimen is initiated at a 40 mg dose which approximates to the mid-point in the TNF-α response curve.

As to `Cc1ccc(C(=O)NC2CC2)cc1-n1ncc(C(=O)c2cccc(C#N)c2)c1N` [3-[5-amino-4-(3-cyanobenzoyl)-pyrazol-1-yl]-N-cyclopropyl-4-methylbenzamide], in series [1], the fraction unbound (as a rule, free concentration divided by total concentration) lay within 0.13 to 0.25. Moreover, the plasma concentration in series [2] (dosing at Day 1, 3 and 5) turned out to be 5700 nM. In series [2] (dosing at Day 1, 3 and 5, out to approximately 140 to 150 hours), the drug levels maintained entry is given as “above 220 ng/mL”. Further, in series [2] (for the duration of the dosing interval), the “concentration based on free fraction” value is given as no less than 740 nM. Also, the Cmax (as a rule, the peak of the concentration-time curve) in series [2] (human, plasma, oral, based on the first dose) is roughly 2000 nM. In series [2] (occurs for 6 days, from drug levels versus Ki and IC50), the enzyme inhibition was greater than 99%. In addition, the “reduction in TNF-α levels” value in the series with TNF-α (doses ranging from 0.1 to 75 mg) is reported as “dose-dependent reduction”. The “dose approximating the mid-point in the TNF-α response curve” value in the series with TNF-α (in vivo) was roughly 40 mg. In addition, the “effect on recovery of AECOPD to the stable disease state” value in series [3] is given as “accelerates the recovery to the stable disease state”. The “highest dose which can be safely administered based on toxicology margins” value in series [4] came out at 75 mg.
